Reference: EP1596818B1, “COSMETIC COMPOSITION WITH A WHITENING EFFECT, METHOD FOR THE PRODUCTION AND USE THEREOF” (Riemschneider, Randolph, Dr. Dr. Prof., priority 2003, dated 2004)
Read-outs that look alike come from different tables or passages of the source.

How the values were obtained:
[1] = tested on: B16-Melanom-Zellen von Mäusen; assay: B16 melanoma cell test for whitening effect (inhibition of melanin production); type: cell-based; conditions: for Anzahl der Zellen: lyophilisate from aqueous phase of the hand cream, 6 days culture
Experimental: (§1) Nach Zerstörung der Emulsion der Handcreme durch Wasserzusatz und Erhitzen auf 80 °C wurde die wässrige Phase abgetrennt, im Vakuum eingeengt und der Zentrifugenrückstand wurde gefriergetrocknet.
(§2) Definierte Mengen des dabei erhaltenen Lyophilisats wurden in entionisiertem Wasser gelöst und nach den Angaben in dem weiter unten beschriebenen Testverfahren behandelt. Tabelle 1
(§3) Die grobe Beurteilung der Whitening-Effekte wurde vorgenommen nach der Abtrennung der Zellen unter Verwendung von 6 ml EDTA-Lösung und Auszählen der Zellen, z.B. Tabelle 1 und Tabelle 3 (Beurteilungskriterien auf S. 15).
(§4) • 1. Herstellung und Sterilisierung eines Test-Kulturmediums • 2. Herstellung einer Zellenflotationslösung • 3. Einstellung des pH-Wertes des Kulturmediums • 4. Ausstreichen des Kulturmediums auf einer Petrischale • 5. Einimpfen von B16-Melanom-Zellen von Mäusen • 6. […] Auswechseln des Kulturmediums am 3. Tag • 8.

[2] = as above; type: cell-based, Mäusen; conditions: mouse, b16 melanoma cells, cell number relative to control (1,00), read-out: Relativwert
Experimental: as §1, §2, §3, §4

Tyrosinase = Tyrosinase inhibitor rate; type: biochemical
[3] = Preclinical test of local tolerability
Description: Zusammenfassung: der Wirkstoff Methyl-ADAPD ist im Patch-Test auf allergisierendes Potenzial geprüft worden. In einer präklinischen Prüfung wurde die lokale Verträglichkeit abgeklärt.

[4] = Wirkstoff-Gehalt 1,25 mg/ml Lösung
[5] = Wirkstoff-Gehalt 2,5 mg/ml Lösung

CC(=O)C1C(=O)C=C(C)OC1=O (stereo not drawn) [Methyl-ADAPD]
Whitening-Effekt [1, 4]: +
Anzahl der Zellen [1, 4]: 82x10^4
Whitening-Effekt [1, 5]: +++
Anzahl der Zellen [1, 5]: 79x10^4
viability at 144 h [2, 4]: 92%
viability at 144 h [2, 5]: 86%
Tyrosinase-Inhibitorrate (Tyrosinase; Wirkstoff-Gehalt 0,5 mg/ml Lösung): 84%
Tyrosinase-Inhibitorrate (Tyrosinase; Wirkstoff-Gehalt 5 mg/ml Lösung): 99,1%
lokale Verträglichkeit [3]: keine Bedenken
